Results as given in patent US20090311217A1, “3-SUBSTITUTED-1H-INDOLE COMPOUNDS, THEIR USE AS MTOR KINASE AND PI3 KINASE INHIBITORS, AND THEIR SYNTHESES” (priority 2008, published 2009).

Tests used:
Type in all cases: biochemical
PI3K-alpha = PI3K-alpha (Homo sapiens, UniProt P42336); assay: PI3K-alpha fluorescence polarization assay; details: read-out: PI3Kα Avg. IC50
human TOR = molecular target: T1, human TOR (Homo sapiens, UniProt P42345); assay: mTOR enzyme assay (DELFIA, His6-S6K substrate); details: read-out: mTOR Kinase Avg. IC50
T1 construct: FLAG

PI3K-gamma = PI3K-gamma (Homo sapiens, UniProt P48736); assay: PI3K-gamma fluorescence polarization assay; details: PI3Kγ Avg. IC50
Outline: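 FP competition read-out: PIP3 produced displaces BODIPY-TMR-IP4 (5 nM) from GST-GRP1 PH domain (100 nM). Kinase step: 5 ng enzyme, 2.5 μM diC8-PIP2, 25 μM ATP, pH 7 HEPES/MgCl2, 1 h, 25° C; EDTA stop.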

PI3K-gamma, sequence (P48736 whole entry, species assumed, the tested form may be a part): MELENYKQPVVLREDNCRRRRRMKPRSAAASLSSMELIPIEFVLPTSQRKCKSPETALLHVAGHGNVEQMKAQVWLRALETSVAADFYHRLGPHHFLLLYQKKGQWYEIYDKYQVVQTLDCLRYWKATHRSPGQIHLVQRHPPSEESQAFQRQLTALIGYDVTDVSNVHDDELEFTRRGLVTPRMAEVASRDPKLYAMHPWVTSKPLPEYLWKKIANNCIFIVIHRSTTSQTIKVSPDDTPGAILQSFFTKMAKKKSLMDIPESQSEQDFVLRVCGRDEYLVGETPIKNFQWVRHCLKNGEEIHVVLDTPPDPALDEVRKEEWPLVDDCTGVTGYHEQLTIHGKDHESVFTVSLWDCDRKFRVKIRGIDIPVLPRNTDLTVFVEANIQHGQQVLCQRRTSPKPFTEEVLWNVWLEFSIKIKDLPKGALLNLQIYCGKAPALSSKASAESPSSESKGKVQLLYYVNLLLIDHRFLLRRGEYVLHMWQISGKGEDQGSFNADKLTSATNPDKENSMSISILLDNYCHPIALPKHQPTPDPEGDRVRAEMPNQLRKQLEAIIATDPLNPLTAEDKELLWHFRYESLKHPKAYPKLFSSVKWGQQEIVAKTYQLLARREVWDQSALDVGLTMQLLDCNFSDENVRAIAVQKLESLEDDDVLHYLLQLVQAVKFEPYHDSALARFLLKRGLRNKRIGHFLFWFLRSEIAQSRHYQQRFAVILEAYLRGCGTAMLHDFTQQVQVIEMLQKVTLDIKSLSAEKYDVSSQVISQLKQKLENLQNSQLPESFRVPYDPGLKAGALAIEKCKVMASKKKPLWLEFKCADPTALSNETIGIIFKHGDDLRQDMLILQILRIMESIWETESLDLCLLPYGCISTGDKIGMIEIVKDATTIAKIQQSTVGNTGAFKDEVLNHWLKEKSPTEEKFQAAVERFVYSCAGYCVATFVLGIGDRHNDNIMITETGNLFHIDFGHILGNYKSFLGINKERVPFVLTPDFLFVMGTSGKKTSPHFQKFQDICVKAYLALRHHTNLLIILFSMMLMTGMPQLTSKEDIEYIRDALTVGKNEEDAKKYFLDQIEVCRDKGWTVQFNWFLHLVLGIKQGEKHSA
PI3K-alpha, sequence (P42336 whole entry, species assumed): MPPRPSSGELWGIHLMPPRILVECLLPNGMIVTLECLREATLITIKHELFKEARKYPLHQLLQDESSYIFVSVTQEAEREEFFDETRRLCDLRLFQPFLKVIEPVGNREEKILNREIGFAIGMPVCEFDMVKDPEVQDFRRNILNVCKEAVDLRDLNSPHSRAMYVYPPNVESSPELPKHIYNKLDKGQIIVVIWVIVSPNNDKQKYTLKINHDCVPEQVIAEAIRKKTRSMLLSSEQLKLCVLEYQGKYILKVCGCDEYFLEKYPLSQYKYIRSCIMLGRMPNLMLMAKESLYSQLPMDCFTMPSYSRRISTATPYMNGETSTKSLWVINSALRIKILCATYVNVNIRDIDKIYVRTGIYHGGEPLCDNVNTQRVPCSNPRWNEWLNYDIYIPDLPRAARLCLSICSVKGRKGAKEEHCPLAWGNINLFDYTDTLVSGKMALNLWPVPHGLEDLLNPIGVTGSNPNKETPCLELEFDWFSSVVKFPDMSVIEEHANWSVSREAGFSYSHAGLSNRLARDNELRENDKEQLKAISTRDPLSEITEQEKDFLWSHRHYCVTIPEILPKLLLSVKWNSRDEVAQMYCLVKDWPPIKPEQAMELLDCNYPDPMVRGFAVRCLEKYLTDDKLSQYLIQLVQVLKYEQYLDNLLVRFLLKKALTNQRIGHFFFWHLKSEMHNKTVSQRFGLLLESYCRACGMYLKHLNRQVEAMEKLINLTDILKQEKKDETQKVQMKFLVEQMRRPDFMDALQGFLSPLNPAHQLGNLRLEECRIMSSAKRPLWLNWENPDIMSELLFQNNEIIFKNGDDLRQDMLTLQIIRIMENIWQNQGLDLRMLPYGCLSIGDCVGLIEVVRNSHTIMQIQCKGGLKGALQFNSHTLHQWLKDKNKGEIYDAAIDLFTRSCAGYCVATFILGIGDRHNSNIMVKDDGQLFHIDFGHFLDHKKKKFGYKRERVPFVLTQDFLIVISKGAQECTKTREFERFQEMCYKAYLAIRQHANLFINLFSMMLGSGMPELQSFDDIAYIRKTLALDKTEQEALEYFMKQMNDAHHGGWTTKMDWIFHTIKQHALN
PI3K-alpha, sequence (P27986 whole entry partner, species assumed): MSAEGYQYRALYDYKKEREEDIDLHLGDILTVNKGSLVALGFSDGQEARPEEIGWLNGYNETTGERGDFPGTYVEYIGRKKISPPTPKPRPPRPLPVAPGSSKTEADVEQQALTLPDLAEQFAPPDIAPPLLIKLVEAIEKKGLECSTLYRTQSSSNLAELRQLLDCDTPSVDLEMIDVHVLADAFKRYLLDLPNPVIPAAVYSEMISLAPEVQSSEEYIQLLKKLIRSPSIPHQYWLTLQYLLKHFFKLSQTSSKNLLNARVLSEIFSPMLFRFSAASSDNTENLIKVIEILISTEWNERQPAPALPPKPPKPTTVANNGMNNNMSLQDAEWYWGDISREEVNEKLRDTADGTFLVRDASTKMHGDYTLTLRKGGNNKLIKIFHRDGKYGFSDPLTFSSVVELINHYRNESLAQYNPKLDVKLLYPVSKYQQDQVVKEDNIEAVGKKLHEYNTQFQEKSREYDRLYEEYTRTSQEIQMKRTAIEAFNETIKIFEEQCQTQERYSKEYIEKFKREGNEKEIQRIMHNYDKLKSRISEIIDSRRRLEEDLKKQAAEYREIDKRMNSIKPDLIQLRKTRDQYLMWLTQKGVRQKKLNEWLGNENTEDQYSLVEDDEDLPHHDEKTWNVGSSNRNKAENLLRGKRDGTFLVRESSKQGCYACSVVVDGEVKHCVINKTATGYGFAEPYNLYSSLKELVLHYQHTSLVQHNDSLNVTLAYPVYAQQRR

IC50 (PI3K-alpha) [nM]	IC50 (human TOR) [nM]	IC50 (PI3K-gamma) [nM]	Compound
2710	140	11000	Cn1c(-c2cccnc2)c(C=C2Oc3cc(O)cc(O)c3C2=O)c2ccccc21 [Example 189, 4,6-dihydroxy-2-[(1-methyl-2-pyridin-3-yl-1H-indol-3-yl)methylene]-1-benzofuran-3(2H)-one]
2920	535	4680	CCOC(=O)c1ccc(-c2cccc3c2c(/C=C2\Oc4cc(O)cc(O)c4C2=O)cn3C)cc1 [Example 382, Ethyl 4-{3-[(Z)-(4,6-Dihydroxy-3-oxo-1-benzofuran-2(3H)-ylidene)methyl]-1-methyl-1H-indol-4-yl}benzoate]
3.5	135	18	CCn1c(C)c(/C=C2\Oc3ccc(NC(=O)Nc4ccc(N(C)CCN(C)C)cc4)cc3C2=O)c2cc(OC)ccc21 [Compound 652, 1-(4-{[2-(dimethylamino)ethyl](methyl)amino}phenyl)-3-{(2Z)-2-[(1-ethyl-5-methoxy-2-methyl-1H-indol-3-yl)methylene]-3-oxo-2,3-dihydro-1-benzofuran-5-yl}urea]
1510	7100	> 10000	O=C1C(=Cc2c[nH]c3cccc(Br)c23)Oc2cc(O)cc(O)c21 [Example 174, 2-[(4-bromo-1H-indol-3-yl)methylene]-4,6-dihydroxy-1-benzofuran-3(2H)-one]
8	85	123	COc1ccc2[nH]c(-c3c(C)nn(C)c3C)c(/C=C3\Oc4ccc(NC(=O)Nc5cccc(C(=O)N(C)CCN(C)C)c5)cc4C3=O)c2c1 [Compound 707, N-[2-(dimethylamino)ethyl]-3-({[(2Z)-2-{[5-methoxy-2-(1,3,5-trimethyl-1H-pyrazol-4-yl)-1H-indol-3-yl]methylidene}-3-oxo-2,3-dihydro-1-benzofuran-5-yl]carbamoyl}amino)-N-methylbenzamide]
1150	38.5	2390	COC(=O)Nc1ccc(-c2cccc3c2c(/C=C2\Oc4cc(O)cc(O)c4C2=O)cn3C)cc1 [Example 391, Methyl (4-{3-[(Z)-(4,6-Dihydroxy-3-oxo-1-benzofuran-2(3H)-ylidene)methyl]-1-methyl-1H-indol-4-yl}phenyl)carbamate]
48.5	2200	3200	COc1ccc2c(c1)c(/C=C1\Oc3cc(O)cc(C)c3C1=O)c(C)n2CCCN(C)C [Example 468, (2Z)-2-({1-[3-(Dimethylamino)propyl]-5-methoxy-2-methyl-1H-indol-3-yl}methylene)-6-hydroxy-4-methyl-1-benzofuran-3(2H)-one]
310	15000	3530	O=C1/C(=C/c2c[nH]c3ccc(Br)cc23)Oc2c1ccc(O)c2O [Example 58, (2Z)-2-[(5-bromo-1H-indol-3-yl)methylene]-6,7-dihydroxy-1-benzofuran-3(2H)-one]
1030	17000	> 10000	O=C1C(=Cc2c[nH]c3c(O)cccc23)Oc2cc(O)cc(O)c21 [Example 246, 4,6-dihydroxy-2-[(7-hydroxy-1H-indol-3-yl)methylene]-1-benzofuran-3(2H)-one]
5.5	26	25.5	CNC(=O)Nc1ccc2c(c1)C(=O)/C(=C/c1c(-c3c(C)nn(CCN(C)C)c3C)[nH]c3ccc(OC)cc13)O2 [Compound 705, 1-{(2Z)-2-[(2-{1-[2-(dimethylamino)ethyl]-3,5-dimethyl-1H-pyrazol-4-yl}-5-methoxy-1H-indol-3-yl)methylidene]-3-oxo-2,3-dihydro-1-benzofuran-5-yl}-3-methylurea]
1000	44.5	4570	Cn1cc(/C=C2\Oc3cc(O)cc(O)c3C2=O)c2c(-c3ccc(C#N)cc3)cccc21 [Example 368, 4-{3-[(Z)-(4,6-Dihydroxy-3-oxo-1-benzofuran-2(3H)-ylidene)methyl]-1-methyl-1H-indol-4-yl}benzonitrile]
1110	12000	> 10000	N#Cc1ccc2[nH]cc(C=C3Oc4cc(O)cc(O)c4C3=O)c2c1 [Example 182, 3-[(4,6-dihydroxy-3-oxo-1-benzofuran-2(3H)-ylidene)methyl]-1H-indole-5-carbonitrile]
90.5	> 20000	4600	COc1ccc2c(c1)c(/C=C1\Oc3cc(O)c(Cl)cc3C1=O)c(C)n2CCN1CCN(C)CC1 [Example 456, (2Z)-5-Chloro-6-hydroxy-2-({5-methoxy-2-methyl-1-[2-(4-methylpiperazin-1-yl)ethyl]-1H-indol-3-yl}methylene)-1-benzofuran-3(2H)-one]
1.87	153	11.3	CCn1c(C)c(/C=C2\Oc3ccc(NC(=O)Nc4ccc(OCCN(C)C)cc4)cc3C2=O)c2cc(OC)ccc21 [Compound 667, 1-{4-[2-(dimethylamino)ethoxy]phenyl}-3-{(2Z)-2-[(1-ethyl-5-methoxy-2-methyl-1H-indol-3-yl)methylidene]-3-oxo-2,3-dihydro-1-benzofuran-5-yl}urea]
1.25	2	5	CNC(=O)Nc1ccc2c(c1)C(=O)/C(=C/c1c(-c3cn(C)nc3C)[nH]c3ccc(OC)cc13)O2 [Compound 722, 1-[(2Z)-2-{[2-(1,3-dimethyl-1H-pyrazol-4-yl)-5-methoxy-1H-indol-3-yl]methylidene}-3-oxo-2,3-dihydro-1-benzofuran-5-yl]-3-methylurea]
4.7	20	30.7	CNC(=O)Nc1ccc2c(c1)C(=O)/C(=C/c1c(-c3nn(C)cc3C(F)(F)F)[nH]c3ccc(OC)cc13)O2 [Compound 724, 1-[(2Z)-2-({5-methoxy-2-[1-methyl-4-(trifluoromethyl)-1H-pyrazol-3-yl]-1H-indol-3-yl}methylidene)-3-oxo-2,3-dihydro-1-benzofuran-5-yl]-3-methylurea]
0.25	1	1.4	COc1ccc2[nH]c(-c3c(C)nn(C)c3C)c(/C=C3\Oc4ccc(NC(=O)Nc5ccc(C(=O)N6CCC(N(C)C)C6)cc5)cc4C3=O)c2c1 (stereo not drawn) [Compound 697, 1-(4-{[3-(dimethylamino)pyrrolidin-1-yl]carbonyl}phenyl)-3-[(2Z)-2-{[5-methoxy-2-(1,3,5-trimethyl-1H-pyrazol-4-yl)-1H-indol-3-yl]methylidene}-3-oxo-2,3-dihydro-1-benzofuran-5-yl]urea]
712	120	5460	Cn1c(-c2ccc(Cl)cc2)c(C=C2Oc3cc(O)cc(O)c3C2=O)c2ccccc21 [Example 201, 2-{[2-(4-chlorophenyl)-1-methyl-1H-indol-3-yl]methylene}-4,6-dihydroxy-1-benzofuran-3(2H)-one]
2230	6450	2190	CC(C)Cn1c(-c2ccccc2)c(C=C2Oc3cc(O)cc(O)c3C2=O)c2ccccc21 [Example 150, 4,6-dihydroxy-2-[(1-isobutyl-2-phenyl-1H-indol-3-yl)methylene]-1-benzofuran-3(2H)-one]
3	0.64	116	COc1ccc2c(c1)c(/C=C1\Oc3cc(O)cc(O)c3C1=O)c(C1CCCC1)n2CCN1CCN(C)CC1 [Example 410, (2Z)-2-({2-cyclopentyl-5-methoxy-1-[2-(4-methylpiperazin-1-yl)ethyl]-1H-indol-3-yl}methylene)-4,6-dihydroxy-1-benzofuran-3(2H)-one]
35.5	2300	656	COc1ccc2c(c1)c(/C=C1\Oc3cc(O)ccc3C1=O)c(C)n2CCN1CCCCCC1 [Example 470, (2Z)-2-{[1-(2-Azepan-1-ylethyl)-5-methoxy-2-methyl-1H-indol-3-yl]methylene}-6-hydroxy-1-benzofuran-3(2H)-one]
4	330	> 5500	COc1ccc2c(c1)c(/C=C1\Oc3ccc(NC(=O)Nc4ccc(N(C)C(=O)CCN(C)C)cc4)cc3C1=O)c(C)n2CCN1CCN(C)CC1 [Compound 695, N-[4-({[(2Z)-2-({5-methoxy-2-methyl-1-[2-(4-methylpiperazin-1-yl)ethyl]-1H-indol-3-yl}methylidene)-3-oxo-2,3-dihydro-1-benzofuran-5-yl]carbamoyl}amino)phenyl]-N,N3,N3-trimethyl-b-alaninamide]
29.5	> 20000	475	COc1ccc2c(c1)c(/C=C1\Oc3cc(O)cc(F)c3C1=O)c(C)n2CCCN(C)C [Example 465, (2Z)-2-({1-[3-(Dimethylamino)propyl]-5-methoxy-2-methyl-1H-indol-3-yl}methylene)-4-fluoro-6-hydroxy-1-benzofuran-3(2H)-one]
9	370	40	CCn1c(C)c(/C=C2\Oc3ccc(NC(=O)Nc4ccc(N(C)CCCCN(C)C)cc4)cc3C2=O)c2cc(OC)ccc21 [Compound 675, 1-(4-{[4-(dimethylamino)butyl](methyl)amino}phenyl)-3-{(2Z)-2-[(1-ethyl-5-methoxy-2-methyl-1H-indol-3-yl)methylidene]-3-oxo-2,3-dihydro-1-benzofuran-5-yl}urea]
191	> 20000	6690	COc1ccc2c(c1)c(/C=C1\Oc3cc(O)c(C)cc3C1=O)c(C)n2CCCN(C)C [Example 459, (2Z)-2-({1-[3-(Dimethylamino)propyl]-5-methoxy-2-methyl-1H-indol-3-yl}methylene)-6-hydroxy-5-methyl-1-benzofuran-3(2H)-one]
